Tests used:
human ERK2 = target: T1, human ERK2 (Homo sapiens, UniProt P28482); test: LanthaScreen TR-FRET enzymatic assay, ERK2; conditions: IC50 values of ERK2 biochemical activity; 5 μM ATP, 400 nM ATF2-GFP substrate
T1 construct: recombinantly expressed as GST-tagged full-length protein purified from E. coli; GST; purchased Invitrogen PV3311; host or cells: E. coli
Procedure: Compounds were tested in a LanthaScreen™ time-resolved fluorescence energy transfer (TR-FRET) enzymatic assay from Invitrogen. The assay used human ERK2 (Mitogen Activated Kinase 1, Invitrogen, Cat. PV3311) recombinantly expressed as GST-tagged full-length protein purified from E. coli and activated in vitro with MAP2K1. The substrate was a recombinant truncated version (residues 19-96) of ATF2 fused with Green Fluorescent Protein (Invitrogen, Cat. PV4445). Test compounds were prepared and diluted in DMSO in 3-fold serial dilutions to 100× of the final testing concentrations. The compounds were then further diluted to 4× by the kinase reaction buffer (Invitrogen, Cat. PV3189). The enzymatic reaction for compound testing was performed in a white 384-well polypropylene plate (Packard, Cat. 6005214) with a total reaction volume of 10 μl containing 20 ng/ml ERK2, 400 nM substrate, and 5 μM ATP that is around its Km. The assay started with loading 2.5 μl of ERK2 diluted in kinase reaction buffer to wells, followed by addition of equal volume of 4× compounds for 15-min incubation at the room temperature for pre-treatment. The enzymatic reaction was initiated by addition of 5 μl of mixture of the substrate and ATP prepared in kinase reaction buffer. After one hour reaction, 10 μl mixture of EDTA (final 10 mM) and terbium-labeled anti-pATF2 (pThr71) antibody (final 2 nM) (Invitrogen, Cat. PV4451) prepared in TR-FRET antibody dilution buffer (Invitrogen, Cat. PV3574) was added to stop the enzymatic reaction and produce TR-FRET signals. After 30 minutes of incubation at room temperature, the plate was read in Tecan Infinite F200 Pro with the following settings: Excitation 340 nm (30)/Emission1 495 nm (10)/Emission2 520 nm (25). The TR-FRET values were dimensionless numbers that were calculated as the ratio of the acceptor ([…]) signal to the donor (Terbium) signal. Percent of control was calculated as the percentage of compound-treated vs 1% DMSO vehicle-treated. The dose-response curves were generated and the ICsos were calculated by nonlinear sigmoid curve fitting using GraphPad Prism.
The IC50 values of ERK2 biochemical activity for the examples disclosed herein are listed in Table 3, A: ≤10 nM; B: >10 nM and ≤50 nM; C: >50 nM and ≤100 nM; D.>100 nM.

Colo205 cell line = test: Colo205 cell proliferation assay (MTT assay, WST-8 readout); type: cell-based; conditions: Homo sapiens; IC50 values of growth inhibition in Colo 205 cells; 72 hours
Procedure: Compounds disclosed herein were tested for the inhibition of ERK2 by a Colo205 cell proliferation assay commonly known as MTT assay. In this assay, a complete media was prepared by adding 10% fetal bovine serum to RPMI-1640 medium (Life technology). Colon cancer cells (Colo205 cell line) were added to each of 88 wells of a 96 well plate at a seeding density of 5,000 cells/well/90 μL. The cells were allowed to attach to the plate by incubating at 37° C. for 24 hours. The compound was dissolved in DMSO (SIGMA). A solution of test compound was prepared in complete media by serial dilution to obtain the following concentrations: 500 μM, 150 μM, 50 μM, 15 μM, 5 μM, 1.5 μM, 0.5 μM, 0.15 μM and 0.05 μM. The test compound solution (10 μL) was added to each of 80 cell-containing wells. The final concentrations of the compound were following: 50 μM, 15 μM, 5 μM, 1.5 μM, 0.5 μM, 0.15 μM, 0.05 μM, 0.015 μM and 0.005 μM. The final concentration of DMSO is 0.5%. To the 8 remaining cell-containing wells, only complete media (containing 0.5% DMSO) was added to form a control group in order to measure maximal proliferation. To the remaining 8 empty wells, complete media was added to for a vehicle control group in order to measure background. The plates were incubated at 37° C. for 72 hours. 10 μL WST-8 solution (DOJINDO, Cell Counting KIT-8) was added to each well. The plates were further incubated at 37° C. for 2 hours, and then read for the absorbance using a microplate reader at 450 nm.
The IC50 values of growth inhibition in Colo 205 cells for Compounds disclosed are listed in Table 3, A′: ≤0.5 μM; B′: >0.5 μM and ≤1 μM; C′: >1.0 μM and ≤5 uM; D′: >5 μM.

T1 sequence (P28482 whole entry): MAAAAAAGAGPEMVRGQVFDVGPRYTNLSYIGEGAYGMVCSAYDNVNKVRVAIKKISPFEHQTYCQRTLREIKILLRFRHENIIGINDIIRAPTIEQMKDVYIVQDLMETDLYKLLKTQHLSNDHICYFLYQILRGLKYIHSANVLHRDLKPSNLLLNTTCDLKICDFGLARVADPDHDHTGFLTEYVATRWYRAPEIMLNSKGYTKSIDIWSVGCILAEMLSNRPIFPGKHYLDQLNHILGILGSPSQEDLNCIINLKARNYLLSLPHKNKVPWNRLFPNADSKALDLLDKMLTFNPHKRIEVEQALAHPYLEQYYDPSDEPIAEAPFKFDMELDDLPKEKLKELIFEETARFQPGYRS

IC50 (human ERK2)	IC50 (Colo205 cell line)	Structure (SMILES)
50 to 100 nM	1000 to 5000 nM	Cc1cc(-c2n[nH]c3ncc(-c4ccn([C@H](CO)c5ccc(Cl)c(F)c5)c(=O)c4)cc23)ccn1 [Example 24, (S)-1-(1-(4-chloro-3-fluorophenyl)-2-hydroxyethyl)-4-(3-(2-methylpyridin-4-yl)-1H-pyrazolo[3,4-b]pyridin-5-yl)pyridin-2(1H)-one]
< 10 nM	≤ 500 nM	Cc1cc(-c2n[nH]c3ccc(-c4ccn([C@H](CO)c5cc(F)cc(Br)c5)c(=O)c4)cc23)ccn1 [Example 26, (S)-1-(1-(3-bromo-5-fluorophenyl)-2-hydroxyethyl)-4-(3-(2-methylpyridin-4-yl)-1H-indazol-5-yl)pyridin-2(1H)-one]
< 10 nM	1000 to 5000 nM	O=c1cc(-c2ccc3[nH]nc(N4CCC(O)C4)c3c2)ccn1[C@H](CO)c1cccc(Cl)c1 (stereo partly drawn) [Example 27, 1-((S)-1-(3-chlorophenyl)-2-hydroxyethyl)-4-(3-(3-hydroxypyrrolidin-1-yl)-1H-indazol-5-yl)pyridin-2(1H)-one]
< 10 nM	≤ 500 nM	Cc1cc(-c2n[nH]c3ccc(-c4ccn([C@H](CO)c5cc(Cl)ccc5F)c(=O)c4)cc23)ccn1 [Example 28, (S)-1-(1-(5-chloro-2-fluorophenyl)-2-hydroxyethyl)-4-(3-(2-methylpyridin-4-yl)-1H-indazol-5-yl)pyridin-2(1H)-one]
< 10 nM	1000 to 5000 nM	Cc1cc(-c2n[nH]c3ccc(-c4cc[nH]c(=O)c4)cc23)ccn1 [Example 29, 4-(3-(2-methylpyridin-4-yl)-1H-indazol-5-yl)pyridin-2(1H)-one]
< 10 nM	≤ 500 nM	Cc1cc(-c2n[nH]c3ccc(-c4ccn([C@H](CO)c5ccc(F)c(Cl)c5)c(=O)c4)cc23)ccn1 [Example 30, (S)-1-(1-(3-chloro-4-fluorophenyl)-2-hydroxyethyl)-4-(3-(2-methylpyridin-4-yl)-1H-indazol-5-yl)pyridin-2(1H)-one]
< 10 nM	1000 to 5000 nM	Cc1cc(-c2n[nH]c3ccc(-c4ccn([C@@H](CO)c5cccc(Cl)c5)c(=O)c4)cc23)ccn1 [Example 31, (R)-1-(1-(3-chlorophenyl)-2-hydroxyethyl)-4-(3-(2-methylpyridin-4-yl)-1H-indazol-5-yl)pyridin-2(1H)-one]
< 10 nM	≤ 500 nM	Cc1cc(-c2n[nH]c3ccc(-c4ccn([C@H](CO)c5ccc(Cl)cc5)c(=O)c4)cc23)ccn1 [Example 32, (S)-1-(1-(4-chlorophenyl)-2-hydroxyethyl)-4-(3-(2-methylpyridin-4-yl)-1H-indazol-5-yl)pyridin-2(1H)-one]
< 10 nM	≤ 500 nM	Cc1cc(-c2n[nH]c3ccc(-c4ccn([C@H](CO)c5cc(F)cc(C(F)(F)F)c5)c(=O)c4)cc23)ccn1 [Example 33, (S)-1-(1-(3-fluoro-5-(trifluoromethyl)phenyl)-2-hydroxyethyl)-4-(3-(2-methylpyridin-4-yl)-1H-indazol-5-yl)pyridin-2(1H)-one]
10 to 50 nM	1000 to 5000 nM	CC(C)Oc1ccc(-c2n[nH]c3ccc(-c4ccn([C@H](CO)c5ccc(F)c(Cl)c5)c(=O)c4)cc23)cn1 [Example 34, (S)-1-(1-(3-chloro-4-fluorophenyl)-2-hydroxyethyl)-4-(3-(6-isopropoxypyridin-3-yl)-1H-indazol-5-yl)pyridin-2(1H)-one]
< 10 nM	≤ 500 nM	Cc1cc(-c2n[nH]c3ccc(-c4ccn([C@H](CO)c5cccc(Cl)c5F)c(=O)c4)cc23)ccn1 [Example 35, (S)-1-(1-(3-chloro-2-fluorophenyl)-2-hydroxyethyl)-4-(3-(2-methylpyridin-4-yl)-1H-indazol-5-yl)pyridin-2(1H)-one]
< 10 nM	≤ 500 nM	Cc1cc(-c2n[nH]c3ccc(-c4ccn([C@H](CO)c5ccc(F)c(Br)c5)c(=O)c4)cc23)ccn1 [Example 36, (S)-1-(1-(3-bromo-4-fluorophenyl)-2-hydroxyethyl)-4-(3-(2-methylpyridin-4-yl)-1H-indazol-5-yl)pyridin-2(1H)-one]
< 10 nM	≤ 500 nM	Cn1cc(-c2n[nH]c3ccc(-c4ccn([C@H](CO)c5ccc(F)c(Cl)c5)c(=O)c4)cc23)cn1 [Example 37, (S)-1-(1-(3-chloro-4-fluorophenyl)-2-hydroxyethyl)-4-(3-(1-methyl-1H-pyrazol-4-yl)-1H-indazol-5-yl)pyridin-2(1H)-one]
< 10 nM	500 to 1000 nM	Cn1cc(-c2n[nH]c3ccc(-c4ccn([C@H](CO)c5ccc(Cl)c(F)c5)c(=O)c4)cc23)cn1 [Example 38, (S)-1-(1-(4-chloro-3-fluorophenyl)-2-hydroxyethyl)-4-(3-(1-methyl-1H-pyrazol-4-yl)-1H-indazol-5-yl)pyridin-2(1H)-one]
< 10 nM	≤ 500 nM	Cn1cc(-c2n[nH]c3ccc(-c4ccn([C@H](CO)c5cc(F)cc(Br)c5)c(=O)c4)cc23)cn1 [Example 39, (S)-1-(1-(3-bromo-5-fluorophenyl)-2-hydroxyethyl)-4-(3-(1-methyl-1H-pyrazol-4-yl)-1H-indazol-5-yl)pyridin-2(1H)-one]
< 10 nM	≤ 500 nM	CC(C)Oc1ccc(-c2n[nH]c3ccc(-c4ccn([C@H](CO)c5cc(F)cc(Br)c5)c(=O)c4)cc23)cn1 [Example 40, (S)-1-(1-(3-bromo-5-fluorophenyl)-2-hydroxyethyl)-4-(3-(6-isopropoxypyridin-3-yl)-1H-indazol-5-yl)pyridin-2(1H)-one]
< 10 nM	≤ 500 nM	Cn1cc(-c2n[nH]c3ccc(-c4ccn([C@H](CO)c5cc(F)cc(C(F)(F)F)c5)c(=O)c4)cc23)cn1 [Example 41, (S)-1-(1-(3-fluoro-5-(trifluoromethyl)phenyl)-2-hydroxyethyl)-4-(3-(1-methyl-1H-pyrazol-4-yl)-1H-indazol-5-yl)pyridin-2(1H)-one]
< 10 nM	500 to 1000 nM	Cn1cc(-c2n[nH]c3ccc(-c4ccn([C@H](CO)c5cccc(C(F)(F)F)c5)c(=O)c4)cc23)cn1 [Example 42, (S)-1-(2-hydroxy-1-(3-(trifluoromethyl)phenyl)ethyl)-4-(3-(1-methyl-1H-pyrazol-4-yl)-1H-indazol-5-yl)pyridin-2(1H)-one]
< 10 nM	1000 to 5000 nM	CC(C)Oc1ccc(-c2n[nH]c3ccc(-c4ccn([C@H](CO)c5cccc(C(F)(F)F)c5)c(=O)c4)cc23)cn1 [Example 43, (S)-1-(2-hydroxy-1-(3-(trifluoromethyl)phenyl)ethyl)-4-(3-(6-isopropoxypyridin-3-yl)-1H-indazol-5-yl)pyridin-2(1H)-one]
< 10 nM	500 to 1000 nM	CC(C)Oc1ccc(-c2n[nH]c3ccc(-c4ccn([C@H](CO)c5cccc(Br)c5)c(=O)c4)cc23)cn1 [Example 44, (S)-1-(1-(3-bromophenyl)-2-hydroxyethyl)-4-(3-(6-isopropoxypyridin-3-yl)-1H-indazol-5-yl)pyridin-2(1H)-one]
